In patent publication US8829185B2 (Bayer HealthCare LLC, priority 2005, dated 2014):

How the values were obtained:
[1] = molecular target: T1, FGFR1-GST (Homo sapiens, UniProt P11362); test: FGFR-1 TR-FRET biochemical assay; details: bounds given in nM
T1 construct: GST; made in house
Outline: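 LANCE TR-FRET with 5 nM FGFR1-GST, 0.6 uM ATP, 25 nM biotin-poly GT in HEPES pH 7.5/MgCl2, 1% DMSO; compound added before enzyme, 1 h at room temperature. 665/615 nm ratio, background without ATP; % inhibition over 10 μM–0.128 nM final for IC50.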

[2] = system: HCT116 cells; test: Tumor cell proliferation (Alamar Blue), HCT116; format: cell-based; details: Homo sapiens, HCT-116, 72 h, HCT116, 72 h
Description: (§1) Human tumor cells (e.g., HCT116 or MDA-MB-231 cells), were seeded in a Costar 96-well plate at 3.0×10^3 cells/well and grown in 150 μl of RPMI complete media (Invitrogen Corporation, Grand Island, N.Y.) containing 10% fetal bovine serum (Hyclone, Logan, Utah) at 37° C. for 16 h in an incubator with 5% CO2. To each well, 50 μl of additional growth media containing 40 μM to 18 nM concentrations of compound with 0.4% DMSO was added. Cells were grown for another 72 h at 37° C. with 5% CO2. 20 μl of Alamar Blue (Trek Diagnostic Systems, Inc., Cleveland, Ohio) reagent was added to each well and incubated for 3 h at 37° C. Plates were read in a SpectraMax Gemini (Molecular Devices, CA) with 544 nm excitation and 590 nm emission wavelength. IC50 values were determined by linear regression analysis of log drug concentration versus percent inhibition.

[3] = system: histone 3 phosphorylation in colon carcinoma (HCT116); test: p-Histone3 assay; format: cell-based; details: Homo sapiens, HCT-116, 24 h, HCT116, 24 hours treatment
Description: Compounds were assayed for the inhibition of histone 3 phosphorylation in colon carcinoma (HCT116). Briefly, 20,000 cells/well were seeded in a 96-well black-walled, poly-d-lysine plates in RPMI+10% FBS and incubated at 37° C. in 5% CO2 overnight. The following day, the cells were treated with compounds for 24 hours at 37° C. Following compound treatment; plates were centrifuged at 1000 rpm for 2 minutes and washed twice with 100 μl of cold sterile TBS. Cells were then fixed with cold 3.7% formaldehyde in TBS (4° C. for 1 hour) and then permeabalized with 0.1% Triton-X-100 in TBS (room temperature for 30 minutes). Plates were then washed with of 0.25% BSA-TBS and blocked with BSA solution for 1 hour at room temperature while shaking. The supernatant was removed and replaced with diluted primary antibody (anti-phospho-histone 3, serine 10, Cell Signaling) at 1:250 in 0.25% BSA-TBS and incubated overnight at 4° C. The plates were washed and treated with diluted secondary antibody (anti-rabbit Eu-labeled) at 1:10000 in 0.25% BSA-TBS (room temperature for 1 hour). The antibody solution was removed from each well and washed eight times. The wash buffer was replaced with 50 μl pre-warmed enhancement solution and mixed on the orbital shaker for 10 minutes. Fluorescence was detected with a Victor V Fluorescence Detector. The data are expressed as percent inhibition: % inhibition=100−((Signal with inhibitor-background)/(Signal without inhibitor-background))×100.

[4] = system: MDA-MB-231 cells; test: Tumor cell proliferation (Alamar Blue), MDA-MB-231; format: cell-based; details: Homo sapiens, MDA-MB-231, 72 h
Description: as §1

T1 sequence (P11362 22-822): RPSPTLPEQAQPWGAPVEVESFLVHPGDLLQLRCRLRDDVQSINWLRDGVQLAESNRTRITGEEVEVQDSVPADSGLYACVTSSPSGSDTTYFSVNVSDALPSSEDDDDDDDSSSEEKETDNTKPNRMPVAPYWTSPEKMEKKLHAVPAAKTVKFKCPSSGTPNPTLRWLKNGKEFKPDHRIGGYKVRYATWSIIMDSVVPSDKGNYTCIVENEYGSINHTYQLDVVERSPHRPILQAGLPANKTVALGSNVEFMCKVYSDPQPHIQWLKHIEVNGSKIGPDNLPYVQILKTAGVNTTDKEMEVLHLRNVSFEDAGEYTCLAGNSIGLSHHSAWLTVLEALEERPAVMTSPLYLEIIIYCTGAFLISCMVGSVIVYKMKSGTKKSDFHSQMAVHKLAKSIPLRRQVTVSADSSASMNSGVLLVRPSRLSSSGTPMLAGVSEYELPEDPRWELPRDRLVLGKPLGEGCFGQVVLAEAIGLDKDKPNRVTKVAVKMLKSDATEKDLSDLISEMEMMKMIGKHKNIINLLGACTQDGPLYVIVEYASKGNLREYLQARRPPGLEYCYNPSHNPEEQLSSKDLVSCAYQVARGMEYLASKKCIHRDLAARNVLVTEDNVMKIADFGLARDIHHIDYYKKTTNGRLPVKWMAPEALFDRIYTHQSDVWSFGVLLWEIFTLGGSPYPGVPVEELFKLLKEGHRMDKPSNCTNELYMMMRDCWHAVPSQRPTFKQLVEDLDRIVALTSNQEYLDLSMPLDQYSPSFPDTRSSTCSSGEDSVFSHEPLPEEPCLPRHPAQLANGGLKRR

Compound | IC50 [1] [nM] | IC50 ([2]; lower bound in nM) [nM] | IC50 ([2]; upper bound given in μM) [nM] | IC50 ([3]; bounds given in μM) [µM] | IC50 ([4]; lower bound in nM) [nM] | IC50 ([4]; upper bound given in μM) [nM] | IC50 ([3]; lower bound in nM) [µM]
COCc1c(-c2ccc(NC(=O)Nc3cc(C(F)(F)F)ccc3F)cc2)c2c(N)ncnn2c1CN1CCOCC1 [Example 12, N-{4-[4-amino-6-(methoxymethyl)-7-(morpholin-4-ylmethyl)pyrrolo[2,1-f][1,2,4]triazin-5-yl]phenyl}-N′-[2-fluoro-5-(trifluoromethyl)phenyl]urea] | < 10 | > 500 | < 4000 | 5 to 10 | > 500 | < 5000 | 
COCc1c(-c2ccc(NC(=O)Nc3cc(C(F)(F)F)ccc3F)cc2)c2c(N)ncnn2c1CN1CCN(C)CC1 [Example 13, N-(4-{4-amino-6-(methoxymethyl)-7-[(4-methylpiperazin-1-yl)methyl]pyrrolo[2,1-f][1,2,4]triazin-5-yl}phenyl)-N′-[2-fluoro-5-(trifluoro-methyl)phenyl]urea] | 10 to 100 | > 500 | < 4000 | < 5 | > 500 | < 5000 | > 0.5
N#Cc1c(C(=O)NCC(F)(F)F)c(-c2ccc(NC(=O)Nc3cc(C(F)(F)F)ccn3)cc2)c2c(N)ncnn12 [Example 7, 4-amino-7-cyano-N-(2,2,2-trifluoroethyl)-5-{4-[({[4-(trifluoromethyl)pyridin-2-yl]amino}carbonyl)-amino]phenyl}pyrrolo[2,1-f][1,2,4]triazine-6-carboxamide] | 10 to 100 | > 500 | < 4000 | < 5 | > 500 | < 5000 | > 0.5
COCc1c(-c2ccc(NC(=O)Nc3cc(C(F)(F)F)ccc3F)cc2)c2c(N)ncnn2c1C(C)O (centres unmarked) [Example 25, N-{4-[4-amino-7-(1-hydroxyethyl)-6-(methoxymethyl)pyrrolo[2,1-f][1,2,4]triazin-5-yl]phenyl}-N′-[2-fluoro-5-(trifluoromethyl)phenyl]urea] |  | > 500 | < 4000 |  |  |  | 
COCc1c(-c2ccc(NC(=O)Nc3cc(C(F)(F)F)ccc3F)cc2)c2c(N)ncnn2c1CO [Example 23, N-{4-[4-amino-7-(hydroxymethyl)-6-(methoxymethyl)-pyrrolo[2,1-f][1,2,4]triazin-5-yl]phenyl}-N′-[2-fluoro-5-(trifluoromethyl)-phenyl]urea] | 10 to 100 | > 500 | < 4000 |  | > 500 | < 5000 | 

Further lines, results first:

IC50 [1] [nM] | IC50 ([2]; lower bound in nM) [nM] | IC50 ([2]; upper bound given in μM) [nM] | IC50 ([3]; bounds given in μM) [µM] | IC50 ([4]; lower bound in nM) [nM] | IC50 ([4]; upper bound given in μM) [nM] | IC50 ([3]; lower bound in nM) [µM] | Compound
< 10 |  |  | < 5 |  |  | > 0.5 | N#CCc1c(-c2ccc(NC(=O)Nc3cc(C(F)(F)F)ccc3F)c(F)c2)c2c(N)ncnn2c1CN1CCOCC1 [Example 69, N-{4-[4-amino-6-(cyanomethyl)-7-(morpholin-4-ylmethyl)-pyrrolo[2,1-f][1,2,4]triazin-5-yl]-2-fluorophenyl}-N′-[2-fluoro-5-(trifluoromethyl)phenyl]urea]
< 10 |  |  | < 5 |  |  | > 0.5 | Cc1c(-c2ccc(NC(=O)Nc3cc(C(F)(F)F)ccc3F)cc2)c2c(N)ncnn2c1CN1CCOCC1 [Example 111, N-{4-[4-amino-6-methyl-7-(morpholin-4-ylmethyl)pyrrolo[2,1-f][1,2,4]triazin-5-yl]phenyl}-N′-[2-fluoro-5-(trifluoromethyl)phenyl]urea]
< 10 |  |  | 5 to 10 |  |  |  | Nc1ncnn2c(CN3CCOCC3)c(-c3cnco3)c(-c3ccc(NC(=O)Nc4cc(C(F)(F)F)ccn4)c(F)c3)c12 [Example 33, N-4-[4-amino-7-(morpholin-4-ylmethyl)-6-(1,3-oxazol-5-yl)pyrrolo[2,1-f][1,2,4]triazin-5-yl]-2-fluorophenyl-N′-[4-(trifluoromethyl)pyridin-2-yl]urea]
< 10 |  |  | < 5 |  |  | > 0.5 | N#Cc1c(-c2ccc(NC(=O)Nc3cc(C(F)(F)F)ccc3F)cc2)c2c(N)ncnn2c1CN1CCOCC1 [Example 54, N-4-[4-amino-6-cyano-7-(morpholin-4-ylmethyl)pyrrolo[2,1-f][1,2,4]triazin-5-yl]phenyl-N′-[2-fluoro-5-(trifluoromethyl)phenyl]urea]
10 to 100 |  |  | < 5 |  |  | > 0.5 | Nc1ncnn2c(CN3CCOCC3)c(CO)c(-c3ccc(NC(=O)Nc4cc(C(F)(F)F)ccc4F)cc3)c12 [Example 34, N-4-[4-amino-6-(hydroxymethyl)-7-(morpholin-4-ylmethyl)-pyrrolo[2,1-f][1,2,4]triazin-5-yl]phenyl-N′-[2-fluoro-5-(trifluoromethyl)-phenyl]urea]
